Results from ChEMBL document CHEMBL2074161, “Substrate upregulation of the human small intestinal peptide transporter, hPepT1” (J Physiol, 1998).
Peptide text beside a SMILES is read from it.

Target: T1, Solute carrier family 15 member 1 (Homo sapiens) (UniProt P46059)
T1 sequence (whole entry): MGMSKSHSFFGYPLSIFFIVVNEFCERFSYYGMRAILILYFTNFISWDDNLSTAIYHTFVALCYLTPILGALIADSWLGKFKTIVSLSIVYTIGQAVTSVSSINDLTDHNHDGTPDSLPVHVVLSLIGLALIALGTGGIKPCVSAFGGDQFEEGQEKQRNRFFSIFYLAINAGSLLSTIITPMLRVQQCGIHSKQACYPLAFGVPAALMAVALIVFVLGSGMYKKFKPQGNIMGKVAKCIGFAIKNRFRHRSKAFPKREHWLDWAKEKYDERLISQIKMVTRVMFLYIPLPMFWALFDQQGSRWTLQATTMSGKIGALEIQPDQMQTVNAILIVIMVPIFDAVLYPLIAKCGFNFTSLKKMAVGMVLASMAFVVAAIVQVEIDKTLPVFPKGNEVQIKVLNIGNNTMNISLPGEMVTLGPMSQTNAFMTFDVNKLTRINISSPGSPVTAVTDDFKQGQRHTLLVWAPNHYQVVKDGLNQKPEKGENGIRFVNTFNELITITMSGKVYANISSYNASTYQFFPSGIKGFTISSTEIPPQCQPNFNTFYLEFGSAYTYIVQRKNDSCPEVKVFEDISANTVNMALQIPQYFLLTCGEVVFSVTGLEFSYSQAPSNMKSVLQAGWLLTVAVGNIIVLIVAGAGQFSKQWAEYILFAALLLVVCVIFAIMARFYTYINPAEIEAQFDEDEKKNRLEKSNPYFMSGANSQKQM
Assay: TP_TRANSPORTER: upregulation of mRNA and protein in Caco-2 cells
Type: functional, cell-based

Activity: inducer [+]
Structure (SMILES): NCC(=O)N[C@@H](CCC(N)=O)C(=O)O (H-Gly-Gln-OH)
